Data published in paper PMC9501633, “Synthesis, Characterisation and Mechanism of Action of Anticancer 3-Fluoroazetidin-2-ones” (Pharmaceuticals, 2022).

Tests used:
[1] = system: UACC-62; test: NCI 60 cell line screen, Melanoma; assay type: cell-based, human; conditions: one dose 10 µM
[2] = system: SR; test: NCI 60 cell line screen, Leukaemia; assay type: cell-based, human; conditions: one dose 10 µM
[3] = system: HOP-62; test: NCI 60 cell line screen, NSCLung; assay type: cell-based, human; conditions: one dose 10 µM
[4] = system: MOLT-4; test: NCI 60 cell line screen, Leukaemia; assay type: cell-based, human; conditions: one dose 10 µM
[5] = system: U251; test: NCI 60 cell line screen, CNS; assay type: cell-based, human
[6] = system: SNB-19; test: NCI 60 cell line screen, CNS; assay type: cell-based, human; conditions: one dose 10 µM
[7] = system: RPMI-8226; test: NCI 60 cell line screen, Leukaemia; assay type: cell-based, human; conditions: one dose 10 µM
[8] = system: NCI-H460; test: NCI 60 cell line screen, NSCLung; assay type: cell-based, human; conditions: one dose 10 µM
[9] = system: HCT-15; test: NCI 60 cell line screen, Colon; assay type: cell-based, human; conditions: one dose 10 µM
[10] = system: HL-60(TB); test: NCI 60 cell line screen, Leukaemia; assay type: cell-based, human; conditions: one dose 10 µM
[11] = system: CCRF-CEM; test: NCI 60 cell line screen, Leukaemia; assay type: cell-based, human; conditions: one dose 10 µM
[12] = system: HT29; test: NCI 60 cell line screen, Colon; assay type: cell-based, human
[13] = system: BT-549; test: NCI 60 cell line screen, Breast; assay type: cell-based, human; conditions: one dose 10 µM
[14] = system: HCT-116; test: NCI 60 cell line screen, Colon; assay type: cell-based, human; conditions: one dose 10 µM
[15] = system: SF-268; test: NCI 60 cell line screen, CNS; assay type: cell-based, human; conditions: one dose 10 µM
[16] = system: IGROV1; test: NCI 60 cell line screen, Ovarian; assay type: cell-based, human
[17] = system: SF-539; test: NCI 60 cell line screen, CNS; assay type: cell-based, human; conditions: one dose 10 µM
[18] = system: MCF7; test: NCI 60 cell line screen, Breast; assay type: cell-based, human; conditions: one dose 10 µM
[19] = system: PC-3; test: NCI 60 cell line screen, Prostate; assay type: cell-based, human; conditions: one dose 10 µM
[20] = system: RXF 393; test: NCI 60 cell line screen, Renal; assay type: cell-based, human; conditions: one dose 10 µM
[21] = system: MDA-MB-435; test: NCI 60 cell line screen, Melanoma; assay type: cell-based, human; conditions: one dose 10 µM
[22] = system: NCI-H226; test: NCI 60 cell line screen, NSCLung; assay type: cell-based, human; conditions: one dose 10 µM
[23] = system: SW-620; test: NCI 60 cell line screen, Colon; assay type: cell-based, human; conditions: one dose 10 µM
[24] = system: COLO 205; test: NCI 60 cell line screen, Colon; assay type: cell-based, human; conditions: one dose 10 µM
[25] = system: NCI-H23; test: NCI 60 cell line screen, NSCLung; assay type: cell-based, human; conditions: one dose 10 µM
[26] = system: T-47D; test: NCI 60 cell line screen, Breast; assay type: cell-based, human; conditions: one dose 10 µM
[27] = system: MDA-MB-468; test: NCI 60 cell line screen, Breast; assay type: cell-based, human; conditions: one dose 10 µM
[28] = system: SN12C; test: NCI 60 cell line screen, Renal; assay type: cell-based, human; conditions: one dose 10 µM
[29] = system: SF-295; test: NCI 60 cell line screen, CNS; assay type: cell-based, human; conditions: one dose 10 µM
[30] = system: NCI 60 cell line panel; test: NCI 60 cell line screen, whole panel; assay type: cell-based
Method: The antiproliferative effects of selected compounds 33, 37 and 43 were initially evaluated in the NCI 60 cell line screen at 10 μM concentration (see Supplementary Materials Table S3). […] . […] .
Compound 33 was next selected for evaluation in the NCI 60 cell line five-dose screen. The GI50 (50% growth inhibition), TGI (total growth inhibition) and LC50 (50% lethal concentration) were determined in the NCI panel of 60 cell lines, using the sulphorhodamine B (SRB) protein assay (Table 5). The GI50 value provides the growth inhibition of the selected compound, while the cytotoxic effect is evaluated in the LC50 value. […] . […] . Glioblastoma is an aggressive and fast-growing brain tumour with a median survival time of 9–16 months from diagnosis, and these tumours quickly evolve resistance to temozolomide chemotherapy, which is the only FDA-approved treatment. […] . Further mechanistic and cellular studies were carried out and are described below.
aData obtained from NCI in vitro human tumour cell screen 1 dose assay (10 µM). 33 (NCI

[31] = system: UO-31; test: NCI 60 cell line screen, Renal; assay type: cell-based, human; conditions: one dose 10 µM
[32] = system: MALME-3M; test: NCI 60 cell line screen, Melanoma; assay type: cell-based, human; conditions: one dose 10 µM

## COc1ccc(C2N(c3cc(OC)c(OC)c(OC)c3)C(=O)C2(F)F)cc1F (centres unmarked) [Compound 43, 3,3-Difluoro-4-(3-fluoro-4-methoxyphenyl)-1-(3,4,5-trimethoxyphenyl)azetidin-2-one]
[1]; Homo sapiens
  inhibition at 10 µM: 44.5%
[1]
  Growth %: 55.46%
[2]; Homo sapiens
  inhibition at 10 µM: 81.3%
[2]
  Growth %: 18.7%
[3]; Homo sapiens
  inhibition at 10 µM: 61.6%
[3]
  Growth %: 38.43%
[4]; Homo sapiens
  inhibition at 10 µM: 81.3%
[4]
  Growth %: 18.67%
[5]; Homo sapiens, U-251, one dose 10 µM
  inhibition at 10 µM: 58.4%
[5]; one dose 10 µM
  Growth %: 41.61%
[6]; Homo sapiens
  inhibition at 10 µM: 47.1%
[6]
  Growth %: 52.93%
[7]; Homo sapiens
  inhibition at 10 µM: 79.2%
[7]
  Growth %: 20.78%
[8]; Homo sapiens
  inhibition at 10 µM: 72.8%
[8]
  Growth %: 27.15%
[9]; Homo sapiens
  inhibition at 10 µM: 80.6%
[9]
  Growth %: 19.44%
[10]; Homo sapiens
  inhibition at 10 µM: 99.1%
[10]
  Growth %: 0.94%
[11]; Homo sapiens
  inhibition at 10 µM: 87%
[11]
  Growth %: 12.96%
[12]; Homo sapiens, HT-29, one dose 10 µM
  inhibition at 10 µM: 88.8%
[12]; one dose 10 µM
  Growth %: 11.16%
[13]; Homo sapiens
  inhibition at 10 µM: 65%
[13]
  Growth %: 34.99%
[14]; Homo sapiens
  inhibition at 10 µM: 94.2%
[14]
  Growth %: 5.76%
[15]; Homo sapiens
  inhibition at 10 µM: 47.1%
[15]
  Growth %: 52.94%
[16]; Homo sapiens, IGROV-1, one dose 10 µM
  inhibition at 10 µM: 55.8%
[16]; one dose 10 µM
  Growth %: 44.2%
[17]; Homo sapiens
  inhibition at 10 µM: 78.3%
[17]
  Growth %: 21.65%
[18]; Homo sapiens, MCF7, MCF7
  inhibition at 10 µM: 84.9%
[18]; MCF7
  Growth %: 15.06%
  Inhibition %: 84.9%
[19]; Homo sapiens
  inhibition at 10 µM: 64.1%
[19]
  Growth %: 35.89%
[20]; Homo sapiens
  inhibition at 10 µM: 50.6%
[20]
  Growth %: 49.36%
[21]; Homo sapiens
  inhibition at 10 µM: 87.1%
[21]
  Growth %: 12.92%
[22]; Homo sapiens
  inhibition at 10 µM: 24.5%
[22]
  Growth %: 75.53%
[23]; Homo sapiens
  inhibition at 10 µM: 78.8%
[23]
  Growth %: 21.22%
[24]; Homo sapiens
  inhibition at 10 µM: 83.7%
[24]
  Growth %: 16.32%
[25]; Homo sapiens
  inhibition at 10 µM: 62.1%
[25]
  Growth %: 37.86%
[26]; Homo sapiens, T47D
  inhibition at 10 µM: 34.3%
[26]
  Growth %: 65.69%
[27]; Homo sapiens
  inhibition at 10 µM: 55.5%
[27]
  Growth %: 44.48%
[28]; Homo sapiens
  inhibition at 10 µM: 45.1%
[28]
  Growth %: 54.92%
[29]; Homo sapiens
  inhibition at 10 µM: 51.7%
[29]
  Growth %: 48.29%
[30]; Homo sapiens, 60 cell, one dose 10 μM, mean over the 60 cell lines, read-out: mean growth inhibition
  inhibition at 10 µM: 56.4%
[30]; one dose 10 µM, mean over the cell lines
  mean Growth %: 43.57%
[31]; Homo sapiens
  inhibition at 10 µM: 46.5%
[31]
  Growth %: 53.48%
[32]; Homo sapiens
  inhibition at 10 µM: 35.9%
[32]
  Growth %: 64.09%
